Our source for the EC50 values is patent publication US20240309003A1, “HETEROCYCLIC COMPOUNDS AS TRIGGERING RECEPTOR EXPRESSED ON MYELOID CELLS 2 AGONISTS AND METHODS OF USE” (Vigil Neuroscience, Inc., priority 2021, published 2024).

Each structure is given as a SMILES string. pEC50: −log10 of the molar value. Where only a bound is given, the exact number is not on record here.

In the assay the target is T1, human TREM2 (Homo sapiens, UniProt Q9NZC2).
T1 construct: expressed in transfected cells; host or cells: HEK293T
Put plainly: TREM2 agonist potency by cellular phosphorylation of Syk (AlphaLisa) in HEK293T-hTREM2 cells. The assay is classed as cell-based. The method, then:
In Vitro Measurement of Triggering Receptor Expressed on Myeloid Cells 2 Activity Using Cellular Phosphorylation of Spleen Tyrosine Kinase (“Syk”) Assays
Measurement of TREM2 agonist potency was done using a HEK cell line expressing human TREM2 and DAP12 (HEK293T-hTREM2 cells). Binding of small molecules to, and activation of, TREM2 increases the phosphorylation of Syk. The resultant levels of Syk phosphorylation are measured using a commercial AlphaLisa reagent kit. To perform the assay, HEK-hTREM2 cells were plated at 14,000 cells per well in a 384 well plate, in 25 μL of complete growth media and incubated at 37° C., 5% CO2 for 20-24 hours.
Prior to the assay, test compounds were diluted in the 384 well plates in assay buffer and allowed to equilibrate for 30 minutes. Growth media was removed from cell plates by inversion on blotting paper, and 25 μL of test articles in assay buffer was added to cells. Cells were incubated for 45 minutes at room temperature. After 45 minutes, assay buffer was removed and 10 μL of lysis buffer was added. Plates were shaken for 20 minutes at 350 RPM at room temperature. After complete lysis, AlphaLisa reagents were added to the lysate, and fluourescence intensity was measured using a Perkin Elmer Envision plate reader. Intensities were used to generate a standard curve, and % activation was calculated. Curve fitting was performed using Prism v9 software, log(agonist) vs response-variable slope (four parameters), and EC50s were calculated from the curve fit.
This assay may be used to test any of the compounds described herein to assess and characterize a compound's ability to act as an agonist of TREM2.
Background: Bead proximity is the source of the signal in Alpha formats.

Setting [1] is: HEK293 cells expressing human TREM2 and DAP12, Table D.
Setting [2] is: HEK293 cells expressing human TREM2 and DAP12, Table D-2.

T1 sequence (Q9NZC2 19-230): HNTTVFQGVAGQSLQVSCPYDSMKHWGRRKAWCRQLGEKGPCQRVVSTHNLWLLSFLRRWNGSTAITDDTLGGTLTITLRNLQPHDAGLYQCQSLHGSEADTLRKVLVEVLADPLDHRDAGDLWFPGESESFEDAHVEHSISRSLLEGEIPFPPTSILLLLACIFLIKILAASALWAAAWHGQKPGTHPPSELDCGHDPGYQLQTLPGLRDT
T1 sequence (O43914 22-113 partner): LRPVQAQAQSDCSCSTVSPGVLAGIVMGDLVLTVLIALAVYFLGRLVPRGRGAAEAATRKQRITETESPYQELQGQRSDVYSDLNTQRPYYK

In the case of `Cc1cnc2c(-c3ccc(Cl)cc3F)nc([C@H]3C[C@@H](C)O[C@@H](c4cnn(C5CC5)c4)C3)nc2n1` [Example 129, 4-(4-chloro-2-fluorophenyl)-2-((2R,4S,6R)-2-(1-cyclopropyl-1H-pyrazol-4-yl)-6-methyltetrahydro-2H-pyran-4-yl)-7-methylpteridine], under setting [1], the pEC50 is 6.30 to 7.30.

On to `Cc1nc2nc(N3CCOC(c4cc[nH]c(=O)c4)C3)nc(C34CC(C(F)(F)F)(C3)C4)c2nc1C` (stereo not shown) [Example 197, 4-(4-(6,7-dimethyl-4-(3-(trifluoromethyl)bicyclo[1.1.1]pentan-1-yl)pteridin-2-yl)morpholin-2-yl)pyridin-2(1H)-one], for which, under setting [1], the pEC50 is > 7.30.

In the case of `Cc1nc2nc(C3CCO[C@@H](c4cnn(C5CC5)c4)C3)nc([C@H]3C[C@@H](C(F)(F)F)C3)c2nc1C` (stereo partly drawn) [Example I-1414, 2-[(2R)-2-(1-cyclopropylpyrazol-4-yl)tetrahydropyran-4-yl]-6,7-dimethyl-4-[3-(trifluoromethyl)cyclobutyl]pteridine], the pEC50 under setting [2] is > 7.30.

With `[2H]C1([2H])C[C@@H](c2nc(-c3ccc(F)cc3F)c3nc(C)c(C)nc3n2)C[C@@]([2H])(c2cnn(C3CC3)c2)O1` (single isomer, unassigned) [Example 191], under setting [1], the pEC50 was 4.00 to 5.52.

On to `COc1ccc([C@H]2C[C@@H](c3nc(-c4ccc(F)cc4F)c4nc(C)c(C)nc4n3)CCO2)cn1` [Example 163, 4-(2,4-difluorophenyl)-2-((2R,4S)-2-(6-methoxypyridin-3-yl)tetrahydro-2H-pyran-4-yl)-6,7-dimethylpteridine], for which the pEC50 under setting [1] was 6.30 to 7.30.

Consider `Cc1nc2nc(N3C[C@@H](c4cnn(C5CC5)c4)O[C@@H](C(F)F)C3)nc(-c3ccc(C(F)(F)F)cc3F)c2nc1C` [Example I-1638, (2R,6R)-2-(1-cyclopropylpyrazol-4-yl)-6-(difluoromethyl)-4-[4-[2-fluoro-4-(trifluoromethyl)phenyl]-6,7-dimethyl-pteridin-2-yl]morpholine], for which the pEC50 under setting [2] is > 7.30.

As for `Cc1nc2cc([C@H]3CCO[C@@H](c4cnn(C5CC5)c4)C3)nc(-c3ccc(C(F)(F)F)cc3F)c2nc1C` [Example 211, 7-((2R,4S)-2-(1-cyclopropyl-1H-pyrazol-4-yl)tetrahydro-2H-pyran-4-yl)-5-(2-fluoro-4-(trifluoromethyl)phenyl)-2,3-dimethylpyrido[3,4-b]pyrazine], the pEC50 under setting [1] is > 7.30.

Under setting [1], `[2H]C([2H])([2H])n1cc([C@H]2C[C@@H](c3nc(-c4ccc(F)cc4F)c4nc(C)c(C)nc4n3)CCO2)cn1` [Example 156] gave a pEC50 of 6.30 to 7.30.

Regarding `Cc1nc2nc(N3C[C@@H](C)O[C@@H](c4cnn(C5CC5)c4F)C3)nc(-c3ccc(F)cc3F)c2nc1C` [Example I-1401, (2S,6R)-2-(1-cyclopropyl-5-fluoro-pyrazol-4-yl)-4-[4-(2,4-difluorophenyl)-6,7-dimethyl-pteridin-2-yl]-6-methyl-morpholine], the pEC50 under setting [2] was > 7.30.

The compound `Cc1nc2nc(C3CCOC(c4cc(C5CC5)n[nH]4)C3)nc(-c3ccc(F)cc3F)c2nc1C` (stereo not shown) [Example 166, 2-(2-(3-cyclopropyl-1H-pyrazol-5-yl)tetrahydro-2H-pyran-4-yl)-4-(2,4-difluorophenyl)-6,7-dimethylpteridine] showed a pEC50 under setting [1] of 6.30 to 7.30.

`Cc1nc2nc(N3CCO[C@H](c4cc[nH]c(=O)c4)C3)nc(-c3ccc(C(F)(F)F)nc3)c2nc1C` [Example 196, (R)-4-(4-(6,7-dimethyl-4-(6-(trifluoromethyl)pyridin-3-yl)pteridin-2-yl)morpholin-2-yl)pyridin-2(1H)-one] had a pEC50 under setting [1] of 6.30 to 7.30.

Regarding `Cc1nc2nc(N3CCN(C)C(c4cnn(C5CC5)c4)C3)nc(-c3ccc(Cl)cc3F)c2nc1C` (stereo not shown) [Example 205, 4-(4-chloro-2-fluorophenyl)-2-(3-(1-cyclopropyl-1H-pyrazol-4-yl)-4-methylpiperazin-1-yl)-6,7-dimethylpteridine], the pEC50 under setting [1] is > 7.30.

Turning to `Cc1cnc2c(-c3ccc(Cl)cc3F)nc(N3C[C@@H](C)O[C@@H](c4cnn(C5CC5)c4)C3)nc2n1` (racemic) [Example 70, 4-(4-(4-chloro-2-fluorophenyl)-7-methylpteridin-2-yl)-2-(1-cyclopropyl-1H-pyrazol-4-yl)-6-methylmorpholine], the pEC50 under setting [1] is > 7.30.

As for `Cc1cnc2c(C34CC(C(F)(F)F)(C3)C4)nc(N3C[C@@H](C)O[C@@H](c4cnn(C5CC5)c4)C3)nc2n1` [Example 126, (2S,6R)-2-(1-cyclopropyl-1H-pyrazol-4-yl)-6-methyl-4-(7-methyl-4-(3-(trifluoromethyl)bicyclo[1.1.1]pentan-1-yl)pteridin-2-yl)morpholine], the pEC50 under setting [1] is > 7.30.

As to `Cc1nc2nc(N3C[C@@H](C)O[C@@H](c4cnn(C5CC5)c4)C3)cc(-c3ccc(Cl)cc3F)c2nc1C` [Example I-1076, (2S,6R)-4-[8-(4-chloro-2-fluoro-phenyl)-2,3-dimethyl-pyrido[2,3-b]pyrazin-6-yl]-2-(1-cyclopropylpyrazol-4-yl)-6-methyl-morpholine], the pEC50 under setting [2] was > 7.30.

For the compound `Cc1nc2nc(N3CCOC(c4cnn5c4CCC5)C3)nc(-c3ccc(F)cc3F)c2nc1C` (stereo in doubt) [Example I-1532, (2S)-4-[4-(2,4-difluorophenyl)-6,7-dimethyl-pteridin-2-yl]-2-(5,6-dihydro-4H-pyrrolo[1,2-b]pyrazol-3-yl)morpholine], the pEC50 under setting [2] was 6.30 to 7.30.

Take `Cc1cc([C@@H]2CN(c3nc(-c4ccc(Cl)cc4F)c4nc(C)c(C)nc4n3)CCO2)no1` [Example I-1270, 4-[4-(4-chloro-2-fluoro-phenyl)-6,7-dimethyl-pteridin-2-yl]-2-(5-methylisoxazol-3-yl)morpholine]: the pEC50 under setting [2] is 6.30 to 7.30.

Consider `[2H]C1([2H])C[C@@H](c2nc(-c3ccc(Cl)cc3F)c3nc(C)c(C)nc3n2)C[C@@H](c2cnn(C3CC3)c2)O1` [Example 189, 4-(4-chloro-2-fluorophenyl)-2-((2S,4R)-2-(1-cyclopropyl-1H-pyrazol-4-yl)tetrahydro-2H-pyran-4-yl-6,6-d2)-6,7-dimethylpteridine], for which the pEC50 under setting [1] was 6.30 to 7.30.

With `Cc1nc2nc([C@H]3CCO[C@@H](c4cccn(C)c4=O)C3)nc(-c3ccc(F)cc3F)c2nc1C` [Example 203], the pEC50 under setting [1] was 4.00 to 5.52.

For `Cc1nc2nc(N3C[C@@H](C4CC4)O[C@@H](c4cnn(C(F)F)c4)C3)nc(-c3ccc(C(F)(F)F)cc3F)c2nc1C` [Example I-1711, (2R,6S)-2-cyclopropyl-6-[1-(difluoromethyl)pyrazol-4-yl]-4-[4-[2-fluoro-4-(trifluoromethyl)phenyl]-6,7-dimethyl-pteridin-2-yl]morpholine], the pEC50 under setting [2] was > 7.30.

With `Cc1nc2nc(N3C[C@@H](C)O[C@@H](c4cnn(C5CC5)c4)C3)nc([C@H]3C[C@H](OC(F)(F)F)C3)c2nc1C` [Example I-1729, (2S,6R)-2-(1-cyclopropylpyrazol-4-yl)-4-[6,7-dimethyl-4-[3-(trifluoromethoxy)cyclobutyl]pteridin-2-yl]-6-methyl-morpholine], the pEC50 under setting [2] is > 7.30.

Under setting [1], `Cc1ccc(-c2nc(N3C[C@@H](C)O[C@@H](c4cnn(C5CC5)c4)C3)nc3nc(C)c(C)nc23)s1` [Example 244, (2S,6R)-2-(1-cyclopropyl-1H-pyrazol-4-yl)-4-(6,7-dimethyl-4-(5-methylthiophen-2-yl)pteridin-2-yl)-6-methylmorpholine] gave a pEC50 of 6.30 to 7.30.

As to `Cc1nc2nc([C@H]3C[C@@H](C)O[C@@H](c4cnn(C5CC5)c4)C3)nc(-c3cc(F)c(F)cc3F)c2nc1C` [Example 157, 2-((2R,4S,6R)-2-(1-cyclopropyl-1H-pyrazol-4-yl)-6-methyltetrahydro-2H-pyran-4-yl)-6,7-dimethyl-4-(2,4,5-trifluorophenyl)pteridine], the pEC50 under setting [1] is > 7.30.

As for `Cc1nc2nc(N3C[C@@H](c4cnn(C5CC5)c4)O[C@@H](C(F)F)C3)nc(-c3ccc(F)cc3F)c2nc1C` (single isomer, unassigned) [Example I-1524], under setting [2], the pEC50 is > 7.30.

For the compound `Cc1nc2nc([C@H]3CCO[C@@H](c4cnn(C5CC5)c4)C3)nc(-c3ccc(C(F)F)cc3F)c2nc1C` [Example I-1216, 2-[(2R,4S)-2-(1-cyclopropylpyrazol-4-yl)tetrahydropyran-4-yl]-4-[4-(difluoromethyl)-2-fluoro-phenyl]-6,7-dimethyl-pteridine], the pEC50 under setting [2] was > 7.30.

Compound `Cc1nc2nc(N3C[C@@H](c4cnn(C)c4)O[C@@H](C4CC4)C3)nc(-c3ccc(F)cc3F)c2nc1C` [Example I-1674, (2S,6R)-2-cyclopropyl-4-[4-(2,4-difluorophenyl)-6,7-dimethyl-pteridin-2-yl]-6-(1-methylpyrazol-4-yl)morpholine] had a pEC50 under setting [2] of 6.30 to 7.30.

For `Cc1nc2nc([C@H]3CCO[C@@H](c4cnn(C5CC5)c4)C3)nc(-c3ccc(C4CCC4)cc3F)c2nc1C` [Example I-1182, 4-(4-cyclobutyl-2-fluoro-phenyl)-2-[(2R,4S)-2-(1-cyclopropylpyrazol-4-yl)tetrahydropyran-4-yl]-6,7-dimethyl-pteridine], the pEC50 under setting [2] was 5.52 to 6.30.

On to `[2H]C1([2H])C[C@@H](c2nc(-c3ccc(F)cc3F)c3nc(C)c(C)nc3n2)C[C@@H](c2cnn(C3CC3)c2)O1` (single isomer, unassigned) [Example 170], for which the pEC50 under setting [1] was > 7.30.

By pEC50 is commonly meant the negative decadic logarithm of the EC50, by convention in mol/L. A higher pEC50 goes with a small EC50.
